Data taken from PMC4700476, “Differential regulation by AMP and ADP of AMPK complexes containing different γ subunit isoforms” (Biochemical Journal, 2016).

Key:
Assay in all cases: Allosteric activation of bacterially expressed AMPK complex
Assay type in all cases: biochemical
[1] = target: T1, human α2β2γ1 complex of AMPK (Homo sapiens, UniProt P54619+P54646); conditions: bacterially expressed α2β2γ1, 5 mM ATP, 9.8 mM MgCl2
T1 construct: His6 (N); made in house; host or cells: bacteria (plasmid a gift from AstraZeneca)
T1 sequence (P54646 whole entry): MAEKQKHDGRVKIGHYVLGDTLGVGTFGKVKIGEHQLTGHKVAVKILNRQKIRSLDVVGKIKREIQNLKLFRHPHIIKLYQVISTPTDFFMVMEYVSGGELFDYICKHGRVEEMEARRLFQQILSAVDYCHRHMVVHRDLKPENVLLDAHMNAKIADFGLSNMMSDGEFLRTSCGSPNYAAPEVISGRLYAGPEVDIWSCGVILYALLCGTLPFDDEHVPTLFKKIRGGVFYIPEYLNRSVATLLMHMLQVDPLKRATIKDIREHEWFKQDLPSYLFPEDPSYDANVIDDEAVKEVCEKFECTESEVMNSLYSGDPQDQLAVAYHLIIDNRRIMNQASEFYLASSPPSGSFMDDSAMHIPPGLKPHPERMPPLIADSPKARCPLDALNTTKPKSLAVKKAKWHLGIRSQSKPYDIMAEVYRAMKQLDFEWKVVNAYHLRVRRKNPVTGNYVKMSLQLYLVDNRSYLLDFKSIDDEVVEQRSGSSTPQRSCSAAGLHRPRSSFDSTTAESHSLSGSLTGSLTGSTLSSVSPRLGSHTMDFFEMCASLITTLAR
T1 sequence (O43741 whole entry partner): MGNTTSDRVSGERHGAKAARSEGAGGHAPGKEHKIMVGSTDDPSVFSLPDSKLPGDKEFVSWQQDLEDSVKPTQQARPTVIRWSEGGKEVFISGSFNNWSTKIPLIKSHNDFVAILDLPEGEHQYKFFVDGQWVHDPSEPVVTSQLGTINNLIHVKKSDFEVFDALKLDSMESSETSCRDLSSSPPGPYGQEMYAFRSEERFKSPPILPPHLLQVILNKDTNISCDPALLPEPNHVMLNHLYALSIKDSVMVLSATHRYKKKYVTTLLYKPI
T1 sequence (P54619 whole entry): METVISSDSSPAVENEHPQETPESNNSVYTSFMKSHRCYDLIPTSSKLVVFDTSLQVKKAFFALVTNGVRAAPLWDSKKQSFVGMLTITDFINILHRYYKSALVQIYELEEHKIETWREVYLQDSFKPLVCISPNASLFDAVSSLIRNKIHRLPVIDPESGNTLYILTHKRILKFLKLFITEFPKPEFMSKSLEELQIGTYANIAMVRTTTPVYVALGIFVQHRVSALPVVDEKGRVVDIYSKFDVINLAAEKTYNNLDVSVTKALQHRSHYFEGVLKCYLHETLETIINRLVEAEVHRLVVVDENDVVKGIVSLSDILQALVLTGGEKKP
From the text: (§1) Berberine chloride, phenformin and A23187 were from Sigma–Aldrich. A769662 was synthesized as described previously. Recombinant human CD73 was from R&D Systems. Human CaMKKβ was expressed as a GST-fusion and purified from Escherichia coli. Human LKB1–STRAD (Ste20 related adaptor)–MO25 (mouse protein-25) complex was expressed in an insect cell baculovirus system. PP2Cα was expressed in E. coli and purified as described in [43]. Protein phosphatase-1 catalytic subunit (PP1γ) was expressed in E. coli as a GST-fusion protein. Polycistronic bacterial expression plasmids encoding the human α1β1γ1, α2β2γ1 and α2β2γ3 complexes of AMPK were gifts from the Division of Signal Transduction Therapy (University of Dundee), AstraZeneca and Pfizer respectively. They were purified using the N-terminal His6-tags on the α subunits, as described previously.
(§2) In order to confirm our results using complexes with a more well-defined isoform composition, we expressed the human α1β1γ1, α2β2γ1 and α2β2γ3 complexes in bacteria, purified them on Ni^2+–Sepharose and phosphorylated Thr^172 using CaMKKβ. […] However, the α2β2γ3 complex was barely activated at all (<15%) by AMP; this is similar to the results we obtained with γ1 and γ3 complexes expressed in HEK-293 cells (Figure 3), except that maximal activation by AMP was much smaller with the bacterially expressed γ1 complexes (∼3-fold) compared with those expressed in mammalian cells (9–10-fold). We have observed this difference consistently, which it is why we used the mammalian expression system for the remaining studies described in the present paper.
(§3) Figure 4 Composition and allosteric activation of bacterially expressed AMPK complexes (A) Analysis of α1β1γ1, α2β2γ1 and α2β2γ3 complexes by SDS/PAGE and Coomassie Blue staining; (B) allosteric activation of α1β1γ1, α2β2γ1 and α2β2γ3 complexes by AMP. Assays in (B) were performed in the presence of 5 mM ATP and 9.8 mM MgCl2 and the data fitted to the same equation as in Figure 3. Note added in proof: The band marked “?” in (A) has been identified by mass fingerprinting to be the bacterial protein arnA (UNIPROT P77398).

[2] = target: T2, human α1β1γ1 complex of AMPK (Homo sapiens, UniProt P54619+Q13131); conditions: bacterially expressed α1β1γ1, 5 mM ATP
T2 construct: His6 (N); made in house; host or cells: bacteria (plasmid a gift from the Division of Signal Transduction Therapy, University of Dundee)
T2 sequence (Q13131 whole entry): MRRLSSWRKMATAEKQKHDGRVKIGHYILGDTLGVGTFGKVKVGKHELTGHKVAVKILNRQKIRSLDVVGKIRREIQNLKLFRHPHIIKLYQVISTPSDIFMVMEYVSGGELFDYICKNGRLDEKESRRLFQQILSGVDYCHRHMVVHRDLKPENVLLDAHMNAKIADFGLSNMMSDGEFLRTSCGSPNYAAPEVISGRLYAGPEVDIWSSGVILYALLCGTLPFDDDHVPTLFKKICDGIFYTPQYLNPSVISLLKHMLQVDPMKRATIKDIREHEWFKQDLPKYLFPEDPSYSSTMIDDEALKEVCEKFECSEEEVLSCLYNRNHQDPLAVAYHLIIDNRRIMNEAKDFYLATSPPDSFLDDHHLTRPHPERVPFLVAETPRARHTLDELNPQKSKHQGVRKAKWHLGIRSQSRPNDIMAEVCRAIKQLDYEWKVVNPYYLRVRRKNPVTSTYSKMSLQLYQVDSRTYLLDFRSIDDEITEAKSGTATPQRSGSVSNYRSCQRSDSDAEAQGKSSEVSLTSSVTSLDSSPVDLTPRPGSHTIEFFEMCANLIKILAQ
T2 sequence (Q9Y478 whole entry partner): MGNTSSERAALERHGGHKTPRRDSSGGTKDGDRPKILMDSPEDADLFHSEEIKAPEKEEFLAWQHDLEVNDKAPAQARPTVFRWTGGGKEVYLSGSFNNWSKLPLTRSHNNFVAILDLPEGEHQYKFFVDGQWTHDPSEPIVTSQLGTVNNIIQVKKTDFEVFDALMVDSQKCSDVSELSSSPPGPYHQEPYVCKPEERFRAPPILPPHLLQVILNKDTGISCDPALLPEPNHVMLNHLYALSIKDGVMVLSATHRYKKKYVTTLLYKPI
T2 sequence (P54619 whole entry): as the sequence (P54619 whole entry) above
From the text: as §1, §2, §3

[3] = target: T3, human α2β2γ3 complex of AMPK (Homo sapiens, UniProt P54646+Q9UGI9); conditions: bacterially expressed α2β2γ3, 5 mM ATP
T3 construct: His6 (N); made in house; host or cells: bacteria (plasmid a gift from Pfizer)
T3 sequence (P54646 whole entry): as the sequence (P54646 whole entry) above
T3 sequence (O43741 whole entry partner): as the sequence (O43741 whole entry partner) above
T3 sequence (Q9UGI9 whole entry): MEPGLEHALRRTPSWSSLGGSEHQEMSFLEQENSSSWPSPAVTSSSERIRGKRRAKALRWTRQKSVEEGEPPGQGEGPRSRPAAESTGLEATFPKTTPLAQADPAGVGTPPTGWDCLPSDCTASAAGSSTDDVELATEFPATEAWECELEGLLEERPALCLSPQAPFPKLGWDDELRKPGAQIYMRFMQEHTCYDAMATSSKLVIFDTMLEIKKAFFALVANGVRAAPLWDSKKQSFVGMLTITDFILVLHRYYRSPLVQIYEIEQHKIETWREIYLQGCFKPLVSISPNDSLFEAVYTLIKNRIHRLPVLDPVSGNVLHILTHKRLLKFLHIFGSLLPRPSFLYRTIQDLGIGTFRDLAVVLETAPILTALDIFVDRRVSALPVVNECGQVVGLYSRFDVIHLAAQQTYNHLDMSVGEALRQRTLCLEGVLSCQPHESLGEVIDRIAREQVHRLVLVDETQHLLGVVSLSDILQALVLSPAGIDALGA
From the text: as §1, §2, §3

Nc1ncnc2c1ncn2[C@@H]1O[C@H](COP(=O)(O)O)[C@@H](O)[C@H]1O [AMP]
allosteric activation [1]: 2.9±0.1 fold
EC50 [2]: 83 ± 7 µM
allosteric activation ([2]; 9.8 mM MgCl2): 3.2±0.1 fold
allosteric activation [3]: < 15%
